Assay results reported in US4794104A, “Pharmaceutical compositions containing ACTH fragments for the therapy of shock conditions and of respiratory and cardiocirculatory insufficiencies” (priority 1986, dated 1988).

Assays:
[1] = system: hypovolemic shock (severe hypotension induced by bleeding) in rats; assay: Hypovolemic shock by bleeding in anesthetized rats: mean arterial pressure and survival after i.v. bolus; format: in vivo, female Wistar rats; details: for Mean arterial pressure, 15-30 min. after treatment / Mean arterial pressure, after bleeding / Mean arterial pressure, before bleeding: mean ± S.E.; for Mean arterial pressure, after bleeding: before treatment; for Mean arterial pressure, before bleeding: baseline before bleeding
Method: Intact and adrenalectomized female Wistar rats (Nossan, Correzzano, Milano, Italy) weighing 250 to 300 g, were used. Following anesthetization and heparinization a common carotid artery and an iliac vein were cannulated in rats. Arterial blood pressure was recorded by means of a pressure transducer (Statham P23 Db) connected to a polygraph (Battaglia-Rangoni, Bologna, Italy). […] Hypovolemic shock was produced by intermittently withdrawing blood from the venous catheter until mean arterial pressure fell to 16-30 mm Hg. […] Following bleeding and mean blood pressure stabilization in the range of 16-30 mm Hg, animals were given intravenous bolus of either ACTH fragments. Control animals were intravenously injected with the same volume of saline (0.1 ml/100 g of body weight).

[2] = Toxicity and side-effects of ACTH fragments (general statement)
shock = details: in vivo; cited from earlier work
[3] = group later given 40 μg/kg i.v.
[4] = group later given 80 μg/kg i.v.
[5] = group later given 160 μg/kg i.v.

Compound | No. of deaths 120 min. after treatment ([1]; 160 μg/kg i.v. after bleeding) | Mean arterial pressure, 15-30 min. after treatment ([1]; 160 μg/kg i.v. after bleeding) | Mean arterial pressure, after bleeding [1, 5] | Mean arterial pressure, before bleeding [1, 5] | also measured
ACTH (1-24) [ACTH-(1-24)] | 0 | 75.80 ± 8.45 mm Hg | 23.15 ± 2.90 mm Hg | 82.40 ± 10.75 mm Hg | No. of deaths 120 min. after treatment ([1]; 40 μg/kg i.v. after bleeding): 0; Mean arterial pressure, 15-30 min. after treatment ([1]; 40 μg/kg i.v. after bleeding): 39.40 ± 6.32 mm Hg; No. of deaths 120 min. after treatment ([1]; 80 μg/kg i.v. after bleeding): 0; Mean arterial pressure, 15-30 min. after treatment ([1]; 80 μg/kg i.v. after bleeding): 59.48 ± 8.10 mm Hg; Mean arterial pressure, after bleeding [1, 3]: 17.40 ± 2.68 mm Hg; Mean arterial pressure, before bleeding [1, 3]: 82.33 ± 11.73 mm Hg; Mean arterial pressure, after bleeding [1, 4]: 19.23 ± 3.65 mm Hg; Mean arterial pressure, before bleeding [1, 4]: 80.15 ± 9.43 mm Hg; Toxicity / side-effects [2]: substantially non-toxic
ACTH (4-10) (MEHFRWG; Corticotropin; UniProt P01189 141-147, looked up, fragment) [ACTH-(4-10)] | 0 | 47.25 ± 6.18 mm Hg | 13.75 ± 2.53 mm Hg | 63.25 ±6.76 mm Hg | 
ACTH(25-39) (NGAEDESAEAFPLEF; Corticotropin; UniProt P01189 162-176, looked up, fragment) | 1 | 25.50 ± 4.40 mm Hg | 11.50 ± 1.34 mm Hg | 78.17 ± 7.25 mm Hg | 
C=CCN1CC[C@]23c4c5ccc(O)c4O[C@H]2C(=O)CC[C@@]3(O)[C@H]1C5 [naloxone] |  |  |  |  | Dosage therapeutically active in shock (shock): about 1 mg/kg
ACTH (1-17) [ACTH-(1-17)] | 0 | 41.50 ± 3.75 mm Hg | 15.75 ± 2.29 mm Hg | 57.50 ± 7.17 mm Hg | 
ACTH (1-39) (SYSMEHFRWGKPVGKKRRPVKVYPNGAEDESAEAFPLEF; Corticotropin; UniProt P01189 138-176, looked up) [ACTH-(1-39), full-length ACTH (1-39)] | 0 | 35.75 ± 5.65 mm Hg | 14.75 ± 2.32 mm Hg | 88.25 ± 2.17 mm Hg | 
ACTH (1-18) (SYSMEHFRWGKPVGKKRR; Corticotropin; UniProt P01189 138-155, looked up, fragment) [ACTH-(1-18)] | 0 | 38.50 ± 1.85 mm Hg | 15.00 ± 2.12 mm Hg | 53.00 ± 4.88 mm Hg | 
ACTH (1-16) (SYSMEHFRWGKPVGKK; Corticotropin; UniProt P01189 138-153, looked up, fragment) [ACTH-(1-16)] | 0 | 54.50 ± 2.02 mm Hg | 15.50 ± 2.53 mm Hg | 78.25 ± 12.46 mm Hg | 
ACTH (1-13) (SYSMEHFRWGKPV; Corticotropin; UniProt P01189 138-150, looked up, fragment) [ACTH-(1-13)] | 0 | 34.50 ± 1.32 mm Hg | 15.75 ± 1.31 mm Hg | 66.25 ± 9.14 mm Hg | 
